In paper PMC9181887, “In Vitro Antithrombotic, Hematological Toxicity, and Inhibitor Studies of Protocatechuic, Isovanillic, and p-Hydroxybenzoic Acids from Maclura tricuspidata (Carr.) Bur” (Molecules, 2022):
Blank lines part the entries; values can stand above or below the compound they belong to.

Columns and labels:
[1] = system: thrombin-activated platelets; assay: ATP release assay; assay type: cell-based; conditions: 10–100 μg, vs thrombin group, p < 0.05; except 10 μg of 4-HA (p = 0.915)
Method: Figure 7 Effect of PA, IVA, and 4-HA on granule secretion. Aliquots of washed platelets pre-treated with or without the compounds for 5 min were stimulated with 0.25 U/mL thrombin at 37 °C for 5 min. After stimulation, the platelets were centrifuged, and the supernatants were collected. Using these supernatants, ATP (A) or serotonin (B) release was determined according to the manufacturer’s instructions. Each value is the mean ± SD of triplicate measurements. # p < 0.01, compared to each control groups. * p < 0.05 and ** p < 0.01, compared to only thrombin-treated control groups. Thrombin, thrombin treated only; PA10-100, 10–100 μg of PA treated; IVA10-100, 10–100 μg of IVA treated; 4-HA10-100, 10–100 μg of 4-HA treated.
Aliquots of washed platelets (250 × 10^6/mL) pre-treated with the compounds for 5 min were activated with 0.25 U/mL of thrombin for 5 min at 37 °C, according to a previously described method, with slight modifications. After activation, the supernatant from centrifuged platelets was used. ATP release was evaluated using an ATP assay kit (Biomedical Research Service Center, Buffalo, NY, USA), according to the manufacturer’s instructions.

[2] = system: human platelet-poor plasma; assay: Recalcification time assay; assay type: biochemical; conditions: for Absorbance after Reaction: 650 nm after 30 min, NC2 0.2094 ± 0.0305; for Half Time at 1/2 Maximum: NC2 740 ± 20 s; for Fold of Half Time: NC2 = 1.00; for plasma coagulation time: 1–20 μg
Method: Figure 5 Effect of PA (A), IVA (B), and 4-HA (C) on recalcification time and plasma density. Human platelet-poor plasma was mixed with PA, IVA, and 4-HA dissolved in DMSO in 96-well plates and incubated for 10 min at 37 °C. Thereafter, 100 mM pre-warmed CaCl2 was added to the mixture and absorbance was taken every 60 s at 650 nm for 30 min in a microplate reader. The plasma density was presented as the optical density at 650 nm after 30 min. The half time (s) was presented as reaching a half-maximum absorbance value. NC1, plasma only; NC2, plasma treated with CaCl2; PC, positive control group (1 U heparin); PA1–20, 1–20 μg of PA treated; IVA1–20, 1–20 μg of IVA treated; 4-HA1–20, 1–20 μg of 4-HA treated.
Recalcification time was measured in a 96-well plate, according to a previously described method, with slight modifications. First, 50 μL of human platelet-poor plasma was mixed with 50 μL of the compounds, vehicle as NC2, or 1 U heparin as PC, and incubated at 37 °C for 10 min. Thereafter, 100 mM pre-warmed CaCl2 was added to the mixture and absorbance was measured at 650 nm every 1 min for 30 min using a microplate reader. The plasma density was presented as the absorbance at 650 nm after 30 min. The half time was presented as reaching a half-maximum absorbance value.

[3] = system: fibrin polymers and clots (fibrinogen, thrombin, CaCl2); assay: Turbidity assay of fibrin polymer/clot formation; assay type: biochemical, Human; conditions: 1, 2, 5, 10, and 20 μg; 2000 s
Method: Inhibition of fibrin clot formation was determined using a turbidity assay as previously described. The reaction mixtures were prepared by the addition of the compounds, 10 IU u-PA as a positive control (PC), or vehicle as a negative control (NC) 2 in a volume of 100 μL of 5 mM CaCl2, 0.5 U/mL of thrombin, and […] fibrinogen in 20 mM Tris-HCl (pH 7.4). The mixture was incubated for 5 min at 37 °C, and turbidity was monitored at 405 nm every 1 min for 2000 s using a microplate reader (Molecular Devices, Sunnyvale, CA, USA). The clot density was presented as a percentage of inhibition.

leukocytes = assay: Hematological study, leukocyte count by hemocytometer; assay type: cell-based; conditions: 10 min, vs control
Method: Figure 1 Blood cytotoxic effect of PA (A), IVA (B), and 4-HA (C). Aliquots of washed platelets (10^3/mL), erythrocytes (10^6/mL), and leukocytes (10^3/mL) were treated with or without the compounds for 10 min and cell number was determined by hemocytometer counts. Each value is the mean ± SD of triplicate measurements. * p < 0.05 and ** p < 0.01, compared to each control groups. 10–500, 10–100 μg of each compound treated.
Total white blood cells (leukocytes) and red blood cells (erythrocytes) were counted using a hemocytometer, as previously described. Blood was diluted 1:200 with Hayem’s fluid and the cells were counted in a loaded hemocytometer chamber. To count the blood platelets, blood was diluted in a ratio of 1:20 with a diluting fluid, and four large (1 mm^2) corner squares of the hemocytometer were counted under a light microscope. Aliquots of leukocytes (0.1 mL; 10^3/mL), erythrocytes (0.1 mL; 10^6/mL), and platelets (0.1 mL; 10^3/mL) were treated with or without the compounds for 10 min.

mouse blood clots = assay: In vitro antithrombotic activity assay using blood clot; conditions: vs NC group treated with saline, p < 0.01, 1 h
Method: To determine the in vitro antithrombotic activity, a blood clot assay was performed based on a previously described method. All experimental procedures were performed in accordance with the related ethical regulations of Gwangju University, and were approved by the Institutional Animal Care and Use Committee of Jeonnam Institute of Natural Resources Research, Jangheung, South Korea (2021-JINR2001). Fresh mouse blood clots (40 μg) treated with the compounds, 10–20 IU u-PA as PC 1–2, or saline as NC were incubated for 1 h. After incubation, blood clot degradation in each group was analyzed using absorbance values at a wavelength of 410 nm. The maximum absorbance wavelength was determined by measuring the absorption spectra in the wavelength range of 340–850 nm.

half-life and plasma coagulation time [2]: significant delay
effect on leukocyte number (leukocytes; 10–50 μg/mL): did not cause any effect
SMILES: O=C(O)c1ccc(O)cc1 [4-HA, 4-hydroxybenzoic acid]
thrombin-stimulated ATP secretion levels [1]: significantly decreased
Absorbance after Reaction ([2]; 1 μg): 0.1424 ± 0.0122
Absorbance after Reaction ([2]; 2 μg): 0.1086 ± 0.0083
Half Time at 1/2 Maximum ([2]; 2 μg): 950 ± 70 s
Fold of Half Time ([2]; 2 μg): 1.28 ± 0.09
Absorbance after Reaction ([2]; 5 μg): 0.0866 ± 0.0051
Absorbance after Reaction ([2]; 10 μg): 0.0233 ± 0.0014
Absorbance after Reaction ([2]; 20 μg): 0.0205 ± 0.0029
plasma coagulation time [2]: partially prolonged
fibrin polymer/clot formation (turbidity at 405 nm) [3]: dose-dependently inhibited
blood clot degradation (mouse blood clots): significantly degraded

effect on leukocyte number (leukocytes; 10–50 μg/mL): did not cause any effect
SMILES: COc1ccc(C(=O)O)cc1O [IVA, isovanillic acid]
thrombin-stimulated ATP secretion levels [1]: significantly decreased
Absorbance after Reaction ([2]; 1 μg): 0.1882 ± 0.0097
Half Time at 1/2 Maximum ([2]; 1 μg): 510 ± 25 s
Fold of Half Time ([2]; 1 μg): 0.69 ± 0.03
Absorbance after Reaction ([2]; 2 μg): 0.1732 ± 0.0106
Absorbance after Reaction ([2]; 5 μg): 0.1575 ± 0.0052
Half Time at 1/2 Maximum ([2]; 5 μg): 615 ± 20 s
Fold of Half Time ([2]; 5 μg): 0.83 ± 0.03
Absorbance after Reaction ([2]; 10 μg): 0.1377 ± 0.0071
Half Time at 1/2 Maximum ([2]; 10 μg): 355 ± 30 s
Fold of Half Time ([2]; 10 μg): 0.48 ± 0.04
Absorbance after Reaction ([2]; 20 μg): 0.0462 ± 0.0035
plasma coagulation time [2]: partially prolonged
final plasma density ([2]; after 1800 s): significantly decreased
initial response of plasma coagulation (fold of half time) ([2]; range over doses, promoted (shorter half time)): 0.48–0.83 fold
fibrin polymer/clot formation (turbidity at 405 nm) [3]: dose-dependently inhibited
blood clot degradation (mouse blood clots): significantly degraded

SMILES: O=C(O)c1ccc(O)c(O)c1 [PA, protocatechuic acid]
thrombin-stimulated ATP secretion levels [1]: significantly decreased
half-life and plasma coagulation time [2]: significant delay
Absorbance after Reaction ([2]; 1 μg): 0.1898 ± 0.0227
Half Time at 1/2 Maximum ([2]; 1 μg): 1220 ± 90 s
Fold of Half Time ([2]; 1 μg): 1.65 ± 0.12
Absorbance after Reaction ([2]; 2 μg): 0.0201 ± 0.0012
Absorbance after Reaction ([2]; 5 μg): 0.0044 ± 0.0009
Absorbance after Reaction ([2]; 10 μg): −0.0047 ± 0.0004
Absorbance after Reaction ([2]; 20 μg): −0.0103 ± 0.0011
plasma coagulation for 1800 s ([2]; 5–20 μg): completely delayed
fibrin polymer/clot formation (turbidity at 405 nm) [3]: dose-dependently inhibited
effect on leukocyte number (leukocytes; 10–100 μg/mL): did not cause any effect
blood clot degradation (mouse blood clots): significantly degraded
